The values that follow come from US5859029A, “Heterocyclic compounds method of preparing them and pharmeutical compositions in which they are present” (Sanofi, priority 1995, dated 1999).

Where a name gives a salt, the structure may show the parent alone.

T1 sequence (P25103 whole entry): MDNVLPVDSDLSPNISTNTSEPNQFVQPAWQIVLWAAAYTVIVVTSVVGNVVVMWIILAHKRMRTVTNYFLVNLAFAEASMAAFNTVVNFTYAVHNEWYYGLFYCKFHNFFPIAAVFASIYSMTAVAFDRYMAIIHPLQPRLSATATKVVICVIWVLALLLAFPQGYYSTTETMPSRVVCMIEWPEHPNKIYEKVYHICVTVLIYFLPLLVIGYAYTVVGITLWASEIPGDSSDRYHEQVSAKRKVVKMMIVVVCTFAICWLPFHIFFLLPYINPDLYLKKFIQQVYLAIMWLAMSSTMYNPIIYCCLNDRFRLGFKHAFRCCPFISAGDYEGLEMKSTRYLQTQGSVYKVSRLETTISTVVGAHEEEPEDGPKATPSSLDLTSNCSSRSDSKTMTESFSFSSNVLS

This test addresses T1, NK1 receptors of IM9 human lymphoblasts (Homo sapiens, UniProt P25103).
T1 construct: NK1 receptors of IM9 human lymphoblasts; endogenous in cells; host or cells: IM9 human lymphoblasts
Description: Binding of [^125 I]BH-SP (substance P) to the NK1 receptors of human lymphoblasts. Particulars: read-out: inhibition constant Ki (binding of substance P to the human lymphoblast NK1 receptor). The method, then: In ligand binding studies, the inhibition constant Ki is defined by the Cheng-Prusoff relationship (in Receptor Binding in Drug Research, eds. R. A. O'Brien, Marcel Dekker, New York, 1986): [formula] [L]: concentration of the ligand, Kd: dissociation constant of the ligand,
IC50 : concentration which inhibits the ligand binding by 50%.
The affinity of the compounds of formula (I) for the tachykinin receptors was evaluated in vitro by several biochemical tests using radioligands:
1°) The binding of [^125 I]BH-SP (substance P labeled with iodine-125 using Bolton-Hunter's reagent) to the NK1 receptors of human lymphoblasts.
The tests were performed according to X. Emonds-Alt et al. (Eur. J. Pharmacol., 1993, 2, 403-413).
Consider `O=C1CCC(CCN2CCC(Cc3ccccc3)CC2)(c2ccc(Cl)c(Cl)c2)CN1Cc1ccccc1` (stereo not shown) [5-[2-(4-benzyl-1-piperid-1-yl)ethyl]-5-(3,4-dichlorophenyl)-1-benzylpiperid-2-one hydrochloride], for which the Ki is approximately 1000 nM.
As for `C[N+]1(CCC2(c3ccc(Cl)c(Cl)c3)CCC(=O)N(Cc3cc(C(F)(F)F)cc(C(F)(F)F)c3)C2)CCC(c2ccccc2)CC1` (stereo not shown) [Example 7, 1-Methyl-1-[2-[1-[3,5-bis(trifluoromethyl)benzyl]-5-(3,4-dichlorophenyl)-2-oxopiperid-5-yl]-ethyl]-4-phenylpiperidinium iodide], the Ki is approximately 0.1 nM.
As to `O=C1CC(CCN2CCC(O)(c3ccccc3)CC2)(c2ccc(Cl)c(Cl)c2)CN1Cc1cc(C(F)(F)F)cc(C(F)(F)F)c1` (stereo not shown) [Example 10, 4-(3,4-Dichlorophenyl)-4-[2-(4-hydroxy-4-phenylpiperid-1-yl)ethyl]-1-[3,5-bis(trifluoromethyl)benzyl]pyrrolidin-2-one hydrochloride], the Ki is approximately 0.1 nM.
With `O=C1CC(CCN2CCC(O)(c3ccccc3)CC2)(c2ccc(Cl)c(Cl)c2)CCN1Cc1ccccc1` (stereo not shown) [1-benzyl-4-(3,4-dichlorophenyl)-4-[2-(4-hydroxy-4-phenylpiperid-1-yl)ethyl]piperid-2-one hydrochloride], the Ki is approximately 1000 nM.
